Read-outs that look alike come from different tables or passages of the source. Marks after values point to notes of the source that are not given here.
Legend:
human 11β-HSD1 = molecular target: T1, human 11β-HSD1 (Homo sapiens, UniProt P28845); test: 11β-HSD1 reductase activity (conversion of radiolabelled cortisone to cortisol) in lysates of stably transfected HEK-293 cells; format: biochemical; settings: for 11β-HSD1 % of control: 20 μM compound, 100 nM cortisone substrate, HEK-293 lysate
T1 construct: expressed in transfected cells; host or cells: HEK-293 cells, stably transfected; cell lysate
Description: (§1) Cells were grown in 10 cm dishes to 80% confluence and incubated for 16 h in steroid-free medium (charcoal-treated fetal calf serum (FCS) from HyClone, Logan, Utah). Cells were rinsed once with phosphate-buffered saline (PBS), detached and centrifuged for 3 min at 150×g. The supernatant was removed and the cell pellet quick-frozen in a dry-ice ethanol bath. At the day of experiment, cell pellets were resuspended in buffer TS2 (100 mM NaCl, 1 mM EGTA, 1 mM EDTA, 1 mM MgCl2, 250 mM sucrose, 20 mM Tris-HCl, pH 7.4), sonicated and activities determined immediately. The rate of conversion of cortisol to cortisone or the reverse reaction was determined in 96-well optical PCR reaction plates (Applied Biosystems, Foster City, Calif.) in a final volume of 22 μl, and the tubes were capped during the reaction to avoid evaporation.
Reactions were initiated simultaneously by adding 10 μl of cell lysate and 12 μl of TS2 buffer containing the appropriate concentration of the inhibitory compound to be tested, NADPH, 30 nCi of [1,2,6,7-^3H]-cortisone and unlabeled cortisone, whereby final concentrations were 400 μM NADPH and 100 nM cortisone. Activities were determined immediately after cell disruption by measuring the conversion of radiolabeled cortisone to cortisol for 10 min.
(§2) Enzyme kinetics were analyzed by non-linear regression using Data Analysis Toolbox (MDL Information Systems Inc.) assuming first-order rate kinetics.
(§3) Assay with 20 μM of the corresponding compound in the reaction mixture, added simultaneously with the substrate:
(§4) Determination of IC50 values, using 7 different inhibitor concentrations at factor 2 intervals: […]

human 11β-HSD2 = molecular target: T2, human 11β-HSD2 (Homo sapiens, UniProt P80365); test: 11β-HSD2 oxidase activity (conversion of radiolabelled cortisol to cortisone) in lysates of stably transfected HEK-293 cells; format: biochemical; settings: for 11β-HSD2 % of control: 20 μM compound, 25 nM cortisol substrate, HEK-293 lysate
T2 construct: expressed in transfected cells; host or cells: HEK-293 cells, stably transfected; cell lysate
T2 sequence (P80365 1-405): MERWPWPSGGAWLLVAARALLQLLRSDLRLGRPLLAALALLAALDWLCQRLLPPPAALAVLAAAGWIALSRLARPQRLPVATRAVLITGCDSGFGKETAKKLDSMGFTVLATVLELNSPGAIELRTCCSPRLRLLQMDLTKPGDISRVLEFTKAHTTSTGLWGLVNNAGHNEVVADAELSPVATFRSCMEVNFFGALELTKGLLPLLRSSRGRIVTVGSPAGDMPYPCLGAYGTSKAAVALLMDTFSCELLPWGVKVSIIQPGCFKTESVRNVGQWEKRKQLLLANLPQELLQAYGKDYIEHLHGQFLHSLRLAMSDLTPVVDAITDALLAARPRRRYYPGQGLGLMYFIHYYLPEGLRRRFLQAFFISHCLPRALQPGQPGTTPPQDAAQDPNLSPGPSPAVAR
Description: as §1
Reactions were initiated by simultaneously adding 10 μl of cell lysate and 12 μl of TS2 buffer containing the appropriate concentration of the inhibitory compound to be tested, NAD^+, 30 nCi of [1,2,6,7-^3H]-cortisol and unlabeled cortisol. […] Stock solutions of the inhibitors in methanol or DMSO were diluted in TS2 buffer to yield the appropriate concentrations, whereby the concentration of methanol or DMSO in the reactions were kept below 0.1%. Control reactions with or without 0.1% of the solvent were performed. Incubation was at 37° C. for 10 min with shaking, reactions were terminated by adding 10 μl of stop solution containing 2 mM of unlabeled cortisol and cortisone dissolved in methanol. The conversion of radiolabeled cortisol was determined by separation of cortisol and cortisone using TLC and a solvent system of 9:1 (v/v) chloroform:methanol, followed by scintillation counting.
as §2, §3, §4

[1] = system: Adjuvant-Induced Arthritis (AIA); test: Adjuvant-induced arthritis (AIA), histology of hind joint sections from arthritic rats; format: in vivo; settings: rat AIA, injected i.d. early (day0, day2, day4) or late (day9, day11, day13)
Text: An intradermal injection, at the base of the tail, with heat killed Mycobaterium tuberculosum in incomplete Feund's Adjuvans results in destructive arthritis within 14 days in susceptible DA or LEW inbred rat strains. AIA can also be induced with cell walls from other bacterial types in IFA, although the arthritogenicity varies. Increased synthesis of tumor necrosis factor a (TNF-a), interleukin 1 (IL-1) and IL-6 is detected as early as day four after adjuvant injection. The disease progresses rapidly over several weeks in what appears clinically to be a monophasic process.
BX-1 early: BX-1 injected i.d. at the time of disease induction (day0) and day2, day4 BX-1 late: BX-1 injected i.d. at first signs of arthritis, day9, day11, day13.
Samples are from both left and right hind limb of three rats per group of a representative experiment
Rat ankle slides were histologically evaluated according to five criteria (blind evaluation by DL Boyle et al., University of California in San Diego, (J. Immunol., January 2002; 168: 51-56.): • 1. Extra-articular inflammation • 2. Bone marrow inflammation (BM) • 3. Synovial inflammation • 4. Cartilage/bone erosion • 5. Proteoglycan damage

[2] = Mittelwert (mean) of determinations 1-3, read-out: IC 50 11β-HSD1, Mittelwert
[3] = 7 inhibitor concentrations at factor 2 intervals
[4] = Mittelwert (mean) of the determinations, read-out: IC 50 11β-HSD2, Mittelwert

T1 sequence (P28845 whole entry): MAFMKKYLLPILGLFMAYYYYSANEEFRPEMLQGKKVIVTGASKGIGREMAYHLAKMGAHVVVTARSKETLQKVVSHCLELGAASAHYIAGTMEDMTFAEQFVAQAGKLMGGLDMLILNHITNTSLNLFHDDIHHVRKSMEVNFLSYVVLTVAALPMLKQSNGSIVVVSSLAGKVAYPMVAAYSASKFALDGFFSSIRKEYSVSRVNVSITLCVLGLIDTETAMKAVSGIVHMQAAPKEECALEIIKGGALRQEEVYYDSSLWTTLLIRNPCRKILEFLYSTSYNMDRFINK

| Compound | 11β-HSD1 % of control (human 11β-HSD1) | 11β-HSD2 % of control (human 11β-HSD2) | also measured |
| --- | --- | --- | --- |
| COc1ccc(OC)c(C2C(C(=O)c3ccc(Br)cc3)=C(O)C(=O)N2CCCn2ccnc2)c1 (centres unmarked) [BNW2] | 78.84 % of control | 77.95 % of control |  |
| CCCCOc1ccc(C(=O)C2=C(O)C(=O)N(CCOC)C2c2cccnc2)c(C)c1 (centres unmarked) [BNW3] | 60.25 % of control | 53.57 % of control |  |
| Cc1n[nH]c(O)c1C(c1ccc(-c2ccc(Cl)c(C(=O)O)c2)o1)c1c(O)n[nH]c1C [BNW5] | 69.75 % of control | 97.47 % of control |  |
| COc1ccc(C(=O)CNc2cccc(Cl)c2Cl)c(C(F)(F)F)c1 [BNW6] | 79.64 % of control | 145 % of control |  |
| COc1ccc(CCNC(=O)C23CCC(C)(C(=O)C2=O)C3(C)C)cc1OC (centres unmarked) [BNW7] | 9.593* % of control | 139.5 % of control | IC50 (human 11β-HSD1; [2]): 2030 nM; IC 50 11β-HSD2, determination 1 (human 11β-HSD2; [3]): did not inhibit; IC 50 11β-HSD2, determination 2 (human 11β-HSD2; determination 2, 7 inhibitor concentrations at factor 2 intervals): did not inhibit; IC 50 11β-HSD2, determination 3 (human 11β-HSD2; determination 3, 7 inhibitor concentrations at factor 2 intervals): did not inhibit |
| COCCC1C(=O)C(O)=C(C(=O)c2ccc(OC)c(C)c2)C1c1ccc(Cl)cc1Cl (centres unmarked) [BNW9] | 30.65 % of control | 77.43 % of control |  |
| COC(=O)[C@@]1(C)CC[C@]2(C)CC[C@]3(C)C(=CC(=O)[C@@H]4[C@@]5(C)CC[C@H](Oc6ccccc6C(=O)O)C(C)(C)[C@@H]5CC[C@]43C)[C@@H]2C1 [BNW13] | 3.879* % of control | 14.37* % of control | IC50 (human 11β-HSD1; [2]): 691 nM; IC50 (human 11β-HSD2; [4]): 281 nM; IC 50 11β-HSD2, determination 1 (human 11β-HSD2; [3]): out of range |
| CC(=O)OC1CC[C@]2(C)C3=C(C(=O)C[C@H]2C1(C)C)[C@]1(C)CCC(C(C)CCC(=O)O)[C@@]1(C)CC3=O (some centres unmarked) [BNW16] | 2.708* % of control | 27.37 % of control | IC50 (human 11β-HSD1; [2]): 144 nM; IC50 (human 11β-HSD2; [4]): 3950 nM; IC 50 11β-HSD2, determination 1 (human 11β-HSD2; [3]): out of range |
| CCOc1ccc(C2c3cc(OCC)c(OCC)cc3CC(=O)N2c2ccc(C(=O)O)cc2)cc1OCC (centres unmarked) [BNW17] | 88.22 % of control | 120.1 % of control |  |
| COCCN1C(=O)C(O)=C(C(=O)c2ccc(OC)c(C)c2)C1c1ccc(C)cc1 (centres unmarked) [BNW20] | 46.83 % of control | 120.7 % of control |  |
| COc1ccc(C(=O)C2=C(O)C(=O)N(CCCn3ccnc3)C2c2ccccc2)cc1Cl (centres unmarked) [BNW21] | 48.94 % of control | 121.6 % of control |  |
| CCOc1ccc(C2C(C(=O)c3ccc(Cl)cc3)=C(O)C(=O)N2CCCn2ccnc2)cc1OCC (centres unmarked) [BNW22] | 41.32 % of control | 104.3 % of control |  |
| COc1cccc(/C=N/NC(=O)CSCc2ccccc2C)c1OC [BNW23] | 85.07 % of control | 132.6608 % of control |  |
| C[C@H]1CC[C@]2(C)[C@H]3C(=O)C=C4[C@@H]5C[C@@](C)(C(=O)O)CC[C@]5(C)CC[C@@]4(C)[C@]3(C)CC[C@H]2C1(C)C [BNW25] | 2.884* % of control | 13.93* % of control | IC50 (human 11β-HSD1; [2]): 172 nM; IC50 (human 11β-HSD1; determination 1, 7 inhibitor concentrations at factor 2 intervals, read-out: IC 50 11β-HSD1, determination 1): 147 nM; IC50 (human 11β-HSD1; determination 2, 7 inhibitor concentrations at factor 2 intervals, read-out: IC 50 11β-HSD1, determination 2): 206 nM; IC50 (human 11β-HSD1; determination 3, 7 inhibitor concentrations at factor 2 intervals, read-out: IC 50 11β-HSD1, determination 3): 161 nM; IC50 (human 11β-HSD2; [4]): 59.7 nM; IC 50 11β-HSD2, determination 1 (human 11β-HSD2; [3]): out of range; IC50 (human 11β-HSD2; determination 2, 7 inhibitor concentrations at factor 2 intervals, read-out: IC 50 11β-HSD2, determination 2): 54.6 nM; IC50 (human 11β-HSD2; determination 3, 7 inhibitor concentrations at factor 2 intervals, read-out: IC 50 11β-HSD2, determination 3): 64.9 nM |
| COc1cc2c(cc1OC)C(COc1ccc([N+](=O)[O-])cc1)N(C(=O)c1ccc(Cl)c([N+](=O)[O-])c1)CC2 (centres unmarked) [BNW27] | 78.64 % of control | 126.4 % of control |  |
| COc1cc(/C=N/NC(=O)CSc2nc3ccccc3n2Cc2ccc(C)cc2)cc(OC)c1OC(C)=O [BNW28] | 76.73 % of control | 137 % of control |  |
| CCC(Sc1nnc(-c2ccc(OC)c(OC)c2)c(-c2ccc(OC)c(OC)c2)n1)C(=O)N(CC)CC (centres unmarked) [BNW30] | 48.36 % of control | 140 % of control |  |
| CC1(C)[C@@H](O)CC[C@]2(C)[C@H]3C(=O)C=C4[C@@H]5C[C@@](C)(C(=O)O)CC[C@]5(C)CC[C@@]4(C)[C@]3(C)CC[C@@H]12 [BX-1, 18-β-glycyrrhetinic acid] |  |  | influence on the pathology of arthritis (T-cell and dendritic cell activation, systemic inflammation, bone marrow infiltration) [1]: positively influence all arms of the pathology of arthritis |

Continued, in another order:

| 11β-HSD1 % of control (human 11β-HSD1) | 11β-HSD2 % of control (human 11β-HSD2) | Compound | also measured |
| --- | --- | --- | --- |
| 102.1 % of control | 96.77 % of control | CCN(CC(O)COc1cc(C)c(Cl)c(C)c1)S(=O)(=O)O (centres unmarked) [BNW1] |  |
| 82.24 % of control | 95.05 % of control | Cc1nn(CC(=O)Nc2sc(C)c(C)c2C(N)=O)c(C)c1[N+](=O)[O-] [BNW4] |  |
| 41.71 % of control | 102.7 % of control | NC(=O)c1c(NC(=O)C2CC=CCC2C(=O)O)sc2c1CCCCC2 (centres unmarked) [BNW8] |  |
| 70.1 % of control | 120.9 % of control | Cc1cccc(C)c1C1C(SCC(=O)Nc2c(Cl)cccc2Cl)=NN=C1c1cccc([S+]([O-])N(C)C)c1 (centres unmarked) [BNW11] |  |
| 85.36 % of control | 132.1 % of control | CCN(CC)S(=O)(=O)c1ccc(Cl)c(C(=O)Nc2nc3ccc(S(C)(=O)=O)cc3s2)c1 [BNW12] |  |
| 50.37 % of control | 56.95 % of control | CC1(C)[C@@H](OCO)CC[C@]2(C)[C@H]3C(=O)C=C4C5=C[C@@](C)(C(=O)O)CC[C@]5(C)CC[C@@]4(C)[C@]3(C)CC[C@@H]12 [BNW15] |  |
| 92.03 % of control | 82.81 % of control | CSc1nc2cc(C)c(C)cc2n1C1OC(CO)C(O)C1O (centres unmarked) [BNW18] |  |
| 94.07 % of control | 136.8 % of control | COc1ccc(CNC(=O)C2CCC(=O)N2C2CCCC2)cc1OC (centres unmarked) [BNW26] |  |
| 75.29 % of control | 115.4 % of control | CCN(CC)S(=O)(=O)c1ccc(OC)c(-c2nnc(-c3cc(S(=O)(=O)N(CC)CC)ccc3OC)o2)c1 [BNW29] |  |

Reference: patent US20100087413A1, “Prevention and treatment of inflammation-induced and/or immune-mediated bone loss” (priority 2003, published 2010)
